Laboratory results taken from patent US11633395B2, “Substituted pyrazolo[1,5-a]pyrazines as negative allosteric modulators of group II metabotropic glutamate receptor” (Sumitomo Pharma Co., Ltd., priority 2017, dated 2023).

Key:
human mGlu2 receptor = human mGlu2 receptor (Homo sapiens (Human), UniProt Q14416); test: Assessment of mGlu2 receptor negative allosteric modulator activity in human mGlu2 receptor stable expressing cells (aequorin luminescence, EC80 glutamate); format: cell-based; details: human mGlu2 receptor stable expressing HEK cells; compound added 120 seconds before EC80 glutamate; luminescence (RLU); read-out: mGluR2 NAM IC50 (nM) or inhibition rate (%)
Chain of human mGlu2 receptor (Q14416 19-872): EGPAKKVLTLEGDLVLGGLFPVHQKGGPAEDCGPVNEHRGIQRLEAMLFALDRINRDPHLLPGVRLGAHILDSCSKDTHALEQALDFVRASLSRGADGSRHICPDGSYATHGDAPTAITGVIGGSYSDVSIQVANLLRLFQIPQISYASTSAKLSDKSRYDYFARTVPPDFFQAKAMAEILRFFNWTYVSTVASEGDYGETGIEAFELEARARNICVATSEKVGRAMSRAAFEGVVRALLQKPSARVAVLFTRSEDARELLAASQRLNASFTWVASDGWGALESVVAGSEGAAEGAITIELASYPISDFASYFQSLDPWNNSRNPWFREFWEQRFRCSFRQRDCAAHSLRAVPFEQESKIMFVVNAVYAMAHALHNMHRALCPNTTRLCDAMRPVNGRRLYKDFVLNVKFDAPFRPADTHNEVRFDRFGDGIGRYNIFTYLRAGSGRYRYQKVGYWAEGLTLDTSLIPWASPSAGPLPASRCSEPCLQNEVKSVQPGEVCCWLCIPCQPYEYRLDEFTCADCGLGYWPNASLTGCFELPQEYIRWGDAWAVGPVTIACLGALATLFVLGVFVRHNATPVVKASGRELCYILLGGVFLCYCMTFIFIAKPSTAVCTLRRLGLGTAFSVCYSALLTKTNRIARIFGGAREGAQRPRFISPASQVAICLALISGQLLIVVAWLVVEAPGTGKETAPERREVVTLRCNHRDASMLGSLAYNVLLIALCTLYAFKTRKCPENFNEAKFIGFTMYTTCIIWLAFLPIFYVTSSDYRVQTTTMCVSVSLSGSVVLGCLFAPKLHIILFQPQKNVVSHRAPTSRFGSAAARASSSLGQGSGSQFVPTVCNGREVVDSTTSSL
Procedure: Test 1: Assessment with Human mGlu2 Receptor Stable Expressing Cells
(1) Human mGlu2 Receptor Stable Expressing Cells
Human mGlu2 receptor stable expressing cells were prepared, and used for incubation. Specifically, human mGlu2 receptor gene was inserted into pcDNA4/TO (K1020-01, Life technologies, Carlsbad, Calif., USA), and introduced into TR-expressed human kidney-derived HEK cells (cat #CCL-82.2, ATCC, USA), followed by screening with Geneticin (cat #10131-027, Life technologies, Carlsbad, Calif., USA), to obtain human mGlu2 receptor stable expressing cells.
High glucose-DMEM media (cat #11995-065, Life technologies, Carlsbad, Calif., USA) containing 10% Dialysed-FBS (cat #26400-044, Life technologies, Carlsbad, Calif., USA), 50 μg/mL Blasticidin S (cat #ANT-BL-1, Life technologies, Carlsbad, Calif., USA), and 2 mg/mL G418 (cat #16513-84, nacalai tesque, Kyoto, Japan) were used for incubation on flasks for cell culture (cat #3133-150, AGC Thechno Glass, Shizuoka, Japan). During the incubation, cells were recovered by the treatment with TrypLE Express (cat #12604-013, Life technologies, Carlsbad, Calif., USA), followed by subculture, every three to four days.
Cells were recovered by an about 80% confluency in the treatment with TrypLE Express three to four days after the subculture, transiently transfected with Ga16, apoaequorin, in media of Hanks (cat #14065-056, Life technologies, Carlsbad, Calif., USA)/20 mmol/L HEPES (cat #15630-080, Life technologies, Carlsbad, Calif., USA) Buffer (pH 7.4) containing 0.1% BSA (cat #12604-013, Life technologies, Carlsbad, Calif., USA) and 0.1 μg/mL Tetracycline (cat #33031-64, nacalai tesque, Kyoto, Japan), and then seeded on a 384-well plate (cat #781090, Greiner bio-one, Frickenhausen, Germany) in 1,500 cells/30 μL/well.
Coelentetrazine h (cat #S2011, Promega, Madison, Wis., USA) was added to the plate (10 μl/well) so as to be a final concentration of 1 μmol/L on the day after the seeding, and let stand for 4 hours or more at room temperature after centrifugation.
(2) Preparation of Test Compounds
A test compound was dissolved in DMSO so as to be a concentration 1000 times higher than the assessment concentration. This DMSO solution was diluted with a medium (Hanks, 20 mmol/L HEPES, 0.1% BSA) to a concentration 6 times higher than the assessment concentration. Glutamate was diluted with Hanks/20 mmol/L HEPES/0.1% BSA medium to a concentration 6 times higher than EC80 concentration.
(3) Assessment of mGlu2 Receptor Negative Allosteric Modulator Activity
Human mGlu2 receptor stable expressing cells were prepared and incubated. Luminescence signals by mGlu2 receptor stimulation were detected with FDSS7000 (Hamamatsu Photonics). The compound solution prepared above was added to a plate where cells and luminescent substrates were added (10 μl/well). After 120 seconds of the addition, EC80 Glutamate-containing solution was added thereto (10 μl/well), and luminescence signals were measured for 300 seconds after the addition (center wavelength: 465 nm) for calculation of RLU (Integration). mGlu2 receptor negative allosteric modulator activity of a compound was calculated by (100-100×(RLU of each compound and concentration)/(RLU of DMSO group)).
The present compound was assessed with the above biological test, and the compounds with mGlu2 receptor negative allosteric modulator activity were found out. mGlu2 receptor negative allosteric modulator activity (IC50 value (nmol/L)) for each compound is shown in the following table.

CYP3A4 = CYP3A4 (Homo sapiens (Human), UniProt P08684); test: Assessment of MBI and enzyme inactivation clearance against CYP3A4 (human liver microsomes, midazolam or testosterone as substrate); format: in vitro ADME; details: for microsomal CLint: probe midazolam or testosterone, CYP3A4, human liver microsomes, CLint = kinact/KI x CYP contents; for CYP3A4 MBI: shift in IC50 values due to preincubation with NADPH, human liver microsomes, MBI potential when 2-fold or more, N.D. = Not Detected
Chain of CYP3A4 (P08684 whole entry): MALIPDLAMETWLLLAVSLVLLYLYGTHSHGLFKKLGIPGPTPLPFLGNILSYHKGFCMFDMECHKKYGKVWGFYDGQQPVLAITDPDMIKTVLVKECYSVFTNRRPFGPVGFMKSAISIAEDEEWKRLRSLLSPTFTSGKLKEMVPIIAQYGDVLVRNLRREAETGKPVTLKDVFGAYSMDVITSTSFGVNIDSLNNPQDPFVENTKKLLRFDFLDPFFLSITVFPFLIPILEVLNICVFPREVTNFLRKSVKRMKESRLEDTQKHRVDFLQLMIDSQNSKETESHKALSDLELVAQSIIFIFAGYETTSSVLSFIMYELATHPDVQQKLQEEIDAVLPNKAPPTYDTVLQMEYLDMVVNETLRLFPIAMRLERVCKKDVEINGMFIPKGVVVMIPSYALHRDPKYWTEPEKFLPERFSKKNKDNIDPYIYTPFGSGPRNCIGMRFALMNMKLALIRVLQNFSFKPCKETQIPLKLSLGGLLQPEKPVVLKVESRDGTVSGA
Source text: Test 4: Assessment of MBT and Enzyme Inactivation Clearance Against CYP3A4
Cytochrome P450 (hereinafter called CYP) is the most important enzyme group associated with drug metabolism, and most of pharmacokinetic interactions are based on the inhibition of the CYP activities. CYP includes multiple molecular species. In particular, CYP3A4 is most involved in drug metabolism in oxidation reaction with CYP, and accounts for a major portion of CYPs existing in the liver.
CYP inhibition is generally divided into two types consisting of “reversible inhibition” and “irreversible inhibition (mechanism-based inhibition: MBI)”. In particular, CYP inhibition based on the MBI is known to have a possibility to cause severe side effects such as hepatotoxicity as well as drug-drug interactions (Curr Opin Drug Discov Devel. 2010 January, 13(1), 66-77, Therapeutics and Clinical Risk Management, 2005, 1(1), 3-13).
MBI and enzyme inactivation clearance against CYP3A4 were evaluated for example compounds.
Inhibition effects and inhibition types of test compounds to CYP3A4 were evaluated using human liver microsomes as an enzyme source and midazolam or testosterone as a substrate of CYP3A4. After metabolic reaction for 30 minutes at 37° C., metabolites of CYP3A4 substrate in the presence or absence of a test compound (at 4 concentrations) were measured by LC-MS/MS, and the inhibition rates were calculated from the ratios of peak area. IC50 values were calculated from plots of test compound concentrations. It was known that when a test compound has MBI potential, IC50 value is lowered by starting metabolic reactions after preincubation in the presence of NADPH (cofactor). Therefore, it was determined that there was MBI potential when the shift in IC50 values due to preincubation was 2-fold or more (Xenobiotica, 2009, 39(2), 99-112).
When MBI potential was determined, kinact (maximum inactivation rate constant) and KI (inactivator concentration yielding a measured inactivation rate at half of kinact) were calculated by the non-linear least-squares method. Enzyme inactivation clearance was calculated according to the method described in Drug Metabolism and Disposition, 2011, 39(7), 1247-1254 (CLint=kinact/KI([…])×CYP contents (pmol/mg protein)).

Structure (SMILES) | IC50 (human mGlu2 receptor) | microsomal CLint (CYP3A4) | CYP3A4 MBI (CYP3A4)
C[C@H]1CN(c2ccc(F)c(Cl)c2)C(=O)c2c(-c3ccc4nccn4c3)cnn21 [Example 3, (7S)-5-(3-chloro-4-fluorophenyl)-3-(imidazo[1,2-a]pyridin-6-yl)-7-methyl-6,7-dihydropyrazolo[1,5-a]pyrazin-4 (5H)-one] | 23 nM | – | –
C[C@H]1CN(c2ccc(C(F)F)cc2)C(=O)c2c(-c3ccc4nccn4c3)cnn21 [Example 4, (7S)-5-[4-(difluoromethyl)phenyl]-3-(imidazo[1,2-a]pyridin-6-yl)-7-methyl-6,7-dihydropyrazolo[1,5-a]pyrazin-4(5H)-one] | 33 nM | – | –
C[C@H]1CN(c2ccc3c(c2)OC(F)(F)O3)C(=O)c2c(-c3ccc4nccn4c3)cnn21 [Example 8, (7S)-5-(2,2-difluoro-1,3-benzodioxol-5-yl)-3-(imidazo[1,2-a]pyridin-6-yl)-7-methyl-6,7-dihydropyrazolo[1,5-a]pyrazin-4(5H)-one] | – | 0.601 µL/min/mg | 2.2
C[C@H]1CN(c2ccc(OC(F)F)cc2)C(=O)c2c(-c3ccc4nccn4c3)cnn21 [Example 9, (7S)-5-[4-(difluoromethoxy)phenyl]-3-(imidazo[1,2-a]pyridin-6-yl)-7-methyl-6,7-dihydropyrazolo[1,5-a]pyrazin-4(5H)-one] | 61 nM | – | –
C[C@H]1CN(c2ccc(C(F)(F)F)cc2)C(=O)c2c(-c3ccc4nc(N)cn4c3)cnn21 [Example 10, (7S)-3-(2-aminoimidazo[1,2-a]pyridin-6-yl)-7-methyl-5-[4-(trifluoromethyl)phenyl]-6,7-dihydropyrazolo[1,5-a]pyrazin-4(5H)-one] | 302 nM | – | –
C[C@H]1CN(c2ccc(C(F)(F)F)cc2)C(=O)c2c(-c3ccc4ncc(N)n4c3)cnn21 [Example 11, (7S)-3-(3-aminoimidazo[1,2-a]pyridin-6-yl)-7-methyl-5-[4-(trifluoromethyl)phenyl]-6,7-dihydropyrazolo[1,5-a]pyrazin-4(5H)-one] | 78 nM | – | –
C[C@H]1CN(c2ccc(C(F)(F)F)cn2)C(=O)c2c(-c3ccc4nccn4c3)cnn21 [Example 12, (7S)-3-(imidazo[1,2-a]pyridin-6-yl)-7-methyl-5-[5-(trifluoromethyl)pyridin-2-yl]-6,7-dihydropyrazolo[1,5-a]pyrazin-4(5H)-one] | – | 0.159 µL/min/mg | 2.2

Second part, the compound after the results:

IC50 (human mGlu2 receptor) | microsomal CLint (CYP3A4) | CYP3A4 MBI (CYP3A4) | Structure (SMILES)
18 nM | – | – | C[C@H]1CN(c2ccc(C(F)(F)F)cc2)C(=O)c2c(-c3ccc4nccn4c3)cnn21 [Example 1, (7S)-3-(imidazo[1,2-a]pyridin-6-yl)-7-methyl-5-[4-(trifluoromethyl)phenyl]-6,7-dihydropyrazolo[1,5-a]pyrazin-4(5H)-one]
11 nM | – | – | C[C@H]1CN(c2ccc(C(F)(F)F)cc2)C(=O)c2c(-c3cn4ccnc4cn3)cnn21 [Example 2, (7S)-3-(imidazo[1,2-a]pyrazin-6-yl)-7-methyl-5-[4-(trifluoromethyl)phenyl]-6,7-dihydropyrazolo[1,5-a]pyrazin-4(5H)-one]
11 nM | 2.15 µL/min/mg | 4.5 | C[C@H]1CN(c2ccc(Cl)s2)C(=O)c2c(-c3ccc4nccn4c3)cnn21 [Example 7, (7S)-5-(5-chlorothiophen-2-yl)-3-(imidazo[1,2-a]pyridin-6-yl)-7-methyl-6,7-dihydropyrazolo[1,5-a]pyrazin-4(5H)-one]
7.9 nM | – | – | C[C@H]1CN(c2ccc(C(F)(F)F)cc2)C(=O)c2c(-c3ccc4ncc(F)n4c3)cnn21 [Example 13, (7S)-3-(3-fluoroimidazo[1,2-a]pyridin-6-yl)-7-methyl-5-[4-(trifluoromethyl)phenyl]-6,7-dihydropyrazolo[1,5-a]pyrazin-4(5H)-one]
13 nM | – | – | CCCc1cnc2ccc(-c3cnn4c3C(=O)N(c3ccc(C(F)(F)F)cc3)C[C@@H]4C)cn12 [Example 16, (7S)-7-methyl-3-(3-propylimidazo[1,2-a]pyridin-6-yl)-5-[4-(trifluoromethyl)phenyl]-6,7-dihydropyrazolo[1,5-a]pyrazin-4(5H)-one]
17 nM | 1.94 µL/min/mg | 3.2 | Cc1cc(N2C[C@H](C)n3ncc(-c4ccc5nccn5c4)c3C2=O)ccc1F [Example 17, (7S)-5-(4-fluoro-3-methylphenyl)-3-(imidazo[1,2-a]pyridin-6-yl)-7-methyl-6,7-dihydropyrazolo[1,5-a]pyrazin-4(5H)-one]
6.9 nM | – | – | Cc1cc(N2C[C@H](C)n3ncc(-c4ccc5ncc(F)n5c4)c3C2=O)ccc1F [Example 18, (7S)-3-(3-fluoroimidazo[1,2-a]pyridin-6-yl)-5-(4-fluoro-3-methylphenyl)-7-methyl-6,7-dihydropyrazolo[1,5-a]pyrazin-4(5H)-one]
